Experiments:
[1] = caloric availability by in vivo animal feeding study (body weight gain); parameters: species or system Sprague-Dawley rats; settings: rats, diet of 50% fort and 21% test compound, 14 days
Excerpt: This example illustrates how the triol triesters of this invention are screened for caloric availability by a carefully controlled in vivo animal feeding study.
An experimental relationship between total calories ingested and animal body weight gain is established by monitoring the body weight gain associated with consumption of a nutritionally balanced diet containing varying concentrations of a reference substance such as corn oil which has a known caloric availability. Correlations between total calories ingested and body weight gain are excellent (r=0.99).
Caloric availability of an unknown substance is evaluated by substituting a specific weight of the unknown substance for the reference substance and observing the body weight gain. The gain in body weight is equated to a total number of calories using the correlation previously established for the reference data. The estimated number of calories ingested are divided by the weight of unknown substance to give the apparent calories per gram for the unknown substance. Generally speaking, in these bioavailability studies, the degree of perianal pelt soiling correlates with reduced bioavailability.
The test animals are six-week-old male Sprague-Dawley rats obtained from the Portage, Michigan facility of the Charles River Laboratories, Inc. After acclimation for 15 days, the test duration is 14 days. […]

[2] = in vitro digestibility screen using pancreatic lipase (TLC analysis); format: in vitro ADME, porcine; settings: pig, two-hour incubation, 37° C., pH 7.1, TLC, read-out: hydrolyzed by pancreatic lipase
Experimental: This example outlines the procedure for screening the in vitro digestibility of the triester derivatives of this invention using pancreatic lipase.
(§1) 1. Buffer: A pH 7.1 phosphate buffer is prepared by dissolving 6.8 g. KH2 PO4 in 1 L. of millipore filtered water (to yield 0.05 M phosphate). Fifty mg. Ca(NO3)2 and 5.0 g. cholic acid (Na^+ salt, an ox bile isolate from Sigma) are added to give 0.3 mM Ca++ and 0.5% cholic acid in 0.05 M phosphate. The pH is adjusted to approximately 7.1 with solid NaOH. Several drops of Baker "Resi-analyzed " toluene are added to prevent bacterial growth during storage at 3°-5° C.
(§2) 2. Lipase: About 15 mg/mL commercial porcine pancreatic lipase from U.S. Biochemical Corporation is dissolved in buffer.
3. Substrates and Standards: A 1.0 mL volumetric flask is charged with an amount of lipid substrate (test substance or standard) calculated to give a concentration of 200 nanomoles per microliter in Baker "Resi-analyzed " toluene. (The proper concentration may be approximated by doubling the molecular weight of the lipid in question, dividing by 10, and diluting to the mark; this yields about 200 nanomoles per microliter.) This preparation affords the substrate to be used in the hydrolysis reactions. […]

[3] = lipase assay as in Example 7, with super fluid chromatography to separate hydrolysis products; format: in vitro ADME, porcine; settings: pig, pancreatic lipase, pH 7.1, one hour incubation, read-out: hydrolyzed by pancreatic lipase
Experimental: as §1, §2
(§3) 3. Substrates and Standards: A 1.0 mL volumetric flask is charged with an amount of lipid substrate (test substance or standard) calculated to give a concentration of 200 nanomoles per microliter in Baker "Resi-analyzed " toluene. (The proper concentration may be approximated by doubling the molecular weight of the lipid in question, dividing by 10, and diluting to the mark; this yields about 200 nanomoles per microliter.) This preparation affords the substrate to be used in the hydrolysis reactions.
(§4) In a 25 mL Erlenmeyer, emulsify 20 mL buffer and 40 microliters of substrate using an ultrasonic disrupter at a microtip maximum setting for approximately 10 seconds. […] Place in a 37° C. water bath and stir vigorously. After temperature equilibration, add 40 microliters of enzyme solution and start timing. […]

[4] = fed to rats; cited from earlier work
nonspecific lipase = settings: pancreatic lipase inhibited by taurocholate; cited from earlier work
pancreatic lipase = test: lipase assay as in Example 7, with super fluid chromatography to separate hydrolysis products; format: in vitro ADME, porcine; settings: one hour incubation
Experimental: as §1, §2, §3, §4

[5] = cited from earlier work

| Compound | absorption in fat balance study [4] | hydrolysis by nonspecific lipase (nonspecific lipase) | also measured |
| --- | --- | --- | --- |
| CCCCCCCC/C=C\CCCCCCCC(=O)OCCC(COC(=O)CCCCCCC/C=C\CCCCCCCC)OC(=O)CCCCCCC/C=C\CCCCCCCC (stereo not shown) [Example 4, 1,2,4-Butane trioleate] |  |  | caloric availability (kcal/gram yielded upon being metabolized) [1]: about 7.7 kcal/gram; metabolised at 2 h [2]: ~50% |
| CCCCCCCCCCCCCC(=O)OCCCCC(COC(=O)CCCCCCCCCCCCC)OC(=O)CCCCCCCCCCCCC (stereo not shown) [Example 5, 1,2,6-hexane trimyristate] |  |  | metabolised at 1 h [3]: ~20% |
| CCCCCCCC/C=C\CCCCCCCC(=O)OC[C@H]1O[C@@](COC(=O)CCCCCCC/C=C\CCCCCCCC)(O[C@H]2O[C@H](COC(=O)CCCCCCC/C=C\CCCCCCCC)[C@@H](OC(=O)CCCCCCC/C=C\CCCCCCCC)[C@H](OC(=O)CCCCCCC/C=C\CCCCCCCC)[C@H]2OC(=O)CCCCCCC/C=C\CCCCCCCC)[C@@H](OC(=O)CCCCCCC/C=C\CCCCCCCC)[C@@H]1OC(=O)CCCCCCC/C=C\CCCCCCCC [sucrose octaoleate] | not absorbed |  |  |
| CCCCCCCC/C=C\CCCCCCCC(=O)OCC(COC(=O)CCCCCCC/C=C\CCCCCCCC)OC(=O)CCCCCCC/C=C\CCCCCCCC [triolein] | absorbed | hydrolyze | metabolised at 2 h [2]: ~90% |
| CCCCCCCCCCCCCC(=O)OCC(COC(=O)CCCCCCCCCCCCC)OC(=O)CCCCCCCCCCCCC [trimyristin] |  |  | hydrolysis by pancreatic lipase (in words) (pancreatic lipase): almost fully hydrolyzed |
| CCCCCCCC/C=C\CCCCCCCC(=O)OC[C@H](OC(=O)CCCCCCC/C=C\CCCCCCCC)[C@@H](COC(=O)CCCCCCC/C=C\CCCCCCCC)OC(=O)CCCCCCC/C=C\CCCCCCCC [erythritol tetraoleate] | absorbability decreased | stepwise hydrolysis | hydrolysis in vivo (free tagged erythritol in urine) ([5]; rats): hydrolyzed in vivo; rate of appearance of fatty acids in the lymph ([5]; thoracic duct cannulated rats): slower rate than glycerol trioleate |
| CCCCCCCC/C=C\CCCCCCCC(=O)OC [methyl oleate] | absorbed | hydrolyze |  |
| CCCCCCCC/C=C\CCCCCCCC(=O)OC[C@H](OC(=O)CCCCCCC/C=C\CCCCCCCC)[C@@H](OC(=O)CCCCCCC/C=C\CCCCCCCC)[C@H](OC(=O)CCCCCCC/C=C\CCCCCCCC)[C@@H](COC(=O)CCCCCCC/C=C\CCCCCCCC)OC(=O)CCCCCCC/C=C\CCCCCCCC [sorbitol hexaoleate] | not absorbed |  |  |
| CCCCCCCC/C=C\CCCCCCCC(=O)OC[C@H](OC(=O)CCCCCCC/C=C\CCCCCCCC)[C@@H](OC(=O)CCCCCCC/C=C\CCCCCCCC)[C@@H](COC(=O)CCCCCCC/C=C\CCCCCCCC)OC(=O)CCCCCCC/C=C\CCCCCCCC [xylitol pentaoleate] | absorbability decreased |  |  |
| CCCCCCCC/C=C\CCCCCCCC(=O)OCC(COC(=O)CCCCCCC/C=C\CCCCCCCC)(COC(=O)CCCCCCC/C=C\CCCCCCCC)COC(=O)CCCCCCC/C=C\CCCCCCCC [pentaerythritol tetraoleate] | absorbability decreased |  |  |
| CCCCCCCC/C=C\CCCCCCCC(=O)OCCOC(=O)CCCCCCC/C=C\CCCCCCCC [ethylene glycol dioleate] | absorbed | hydrolyze |  |

Source: patent publication US5043179A, “Triol triester derivatives as low calorie fat mimetics” (Nabisco Brands, Inc., priority 1990, dated 1991)
